Measured values from BindingDB's records for doi:10.1021/jm00381a002 (1985).
Where a SMILES comes first, the peptide text is derived from it.

Molecular target: gastrin/CCK-B receptor (Rattus norvegicus)
Assay: Inhibitory activity against binding of [125I](Nle11)-HG-13 to gastrin receptor in vitro

Row | Compound | IC50 [µM]
1 | CC(C)(C)OC(=O)N[C@@H](Cc1c[nH]c2ccccc12)C(=O)N[C@@H](Cc1ccccc1)C(=O)N[C@@H](CC(=O)O)C(N)=O [3-{2-[2-tert-Butoxycarbonylamino-3-(1H-indol-3-yl)-propionylamino]-3-phenyl-propionylamino}-succinamic acid] (HELM PEPTIDE1{[CC(C)(C)OC(=O)[*:2]].W.F.D.[am]}$$$$V2.0) | 30
2 | CC(C)C[C@H](NC(=O)[C@H](Cc1c[nH]c2ccccc12)NC(=O)OC(C)(C)C)C(=O)N[C@@H](C)C(N)=O [[1-[1-(1-Carbamoyl-ethylcarbamoyl)-3-methyl-butylcarbamoyl]-2-(1H-indol-3-yl)-ethyl]-carbamic acid tert-butyl ester] (HELM PEPTIDE1{[CC(C)(C)OC(=O)[*:2]].W.L.A.[am]}$$$$V2.0) | 150
3 | CC(C)(C)OC(=O)N[C@@H](Cc1c[nH]c2ccccc12)C(=O)N1CCC[C@H]1C(=O)N[C@@H](CC(=O)O)C(N)=O [3-({1-[2-tert-Butoxycarbonylamino-3-(1H-indol-3-yl)-propionyl]-pyrrolidine-2-carbonyl}-amino)-succinamic acid] (HELM PEPTIDE1{[CC(C)(C)OC(=O)[*:2]].W.P.D.[am]}$$$$V2.0) | 100
4 | CC(C)C[C@H](NC(=O)[C@H](Cc1c[nH]c2ccccc12)NC(=O)OCc1ccccc1)C(=O)N[C@@H](CC(=O)O)C(N)=O [3-{2-[2-Benzyloxycarbonylamino-3-(1H-indol-3-yl)-propionylamino]-4-methyl-pentanoylamino}-succinamic acid] (HELM PEPTIDE1{[O=C(OCc1ccccc1)[*:2]].W.L.D.[am]}$$$$V2.0) | 40
5 | CC[C@H](C)[C@H](NC(=O)[C@H](Cc1c[nH]c2ccccc12)NC(=O)OC(C)(C)C)C(=O)N[C@@H](CC(=O)O)C(N)=O (HELM PEPTIDE1{[CC(C)(C)OC(=O)[*:2]].W.I.D.[am]}$$$$V2.0) | 50
6 | CC(C)C[C@H](NC(=O)[C@H](Cc1c[nH]c2ccccc12)NC(=O)OC(C)(C)C)C(=O)N[C@@H](CC(=O)O)C(=O)N(C)C [3-{2-[2-tert-Butoxycarbonylamino-3-(1H-indol-3-yl)-propionylamino]-4-methyl-pentanoylamino}-N,N-dimethyl-succinamic acid] (HELM PEPTIDE1{[CC(C)(C)OC(=O)[*:2]].W.L.D.[CN(C)[*:1]]}$$$$V2.0) | 100
7 | CC(C)CC(NC(=O)[C@H](Cc1c[nH]c2ccccc12)NC(=O)OC(C)(C)C)C(=O)N[C@@H](CC(=O)O)C(N)=O (some centres not stated) [3-{2-[2-tert-Butoxycarbonylamino-3-(1H-indol-3-yl)-propionylamino]-4-methyl-pentanoylamino}-succinamic acid] | 50
8 | CCCC[C@H](NC(=O)[C@H](Cc1c[nH]c2ccccc12)NC(=O)OC(C)(C)C)C(=O)N[C@@H](CC(=O)O)C(N)=O [3-{2-[2-tert-Butoxycarbonylamino-3-(1H-indol-3-yl)-propionylamino]-hexanoylamino}-succinamic acid] (HELM PEPTIDE1{[CC(C)(C)OC(=O)[*:2]].W.[Nle].D.[am]}$$$$V2.0) | 30
9 | CC(C)C[C@H](NC(=O)[C@H](Cc1c[nH]c2ccccc12)NC(=O)OC(C)(C)C)C(=O)N[C@@H](CCC(=O)O)C(N)=O [4-{2-[2-tert-Butoxycarbonylamino-3-(1H-indol-3-yl)-propionylamino]-4-methyl-pentanoylamino}-4-carbamoyl-butyric acid] (HELM PEPTIDE1{[CC(C)(C)OC(=O)[*:2]].W.L.E.[am]}$$$$V2.0) | 20
10 | O=C(N[C@@H](Cc1c[nH]c2ccccc12)C(=O)O)c1ccc(Cl)cc1 [(S)-2-(4-Chloro-benzoylamino)-3-(1H-indol-3-yl)-propionic acid] | 250
11 | CSCC[C@H](NC(=O)[C@H](Cc1c[nH]c2ccccc12)NC(=O)OC(C)(C)C)C(=O)N[C@@H](CC(=O)O)C(N)=O [3-{2-[2-tert-Butoxycarbonylamino-3-(1H-indol-3-yl)-propionylamino]-4-methylsulfanyl-butyrylamino}-succinamic acid] (HELM PEPTIDE1{[CC(C)(C)OC(=O)[*:2]].W.M.D.[am]}$$$$V2.0) | 30
12 | CSCC[C@H](NC(=O)[C@H](Cc1c[nH]c2ccccc12)NC(=O)CNC(=O)OC(C)(C)C)C(=O)N[C@@H](CC(=O)O)C(N)=O [3-{2-[2-(2-tert-Butoxycarbonylamino-acetylamino)-3-(1H-indol-3-yl)-propionylamino]-4-methylsulfanyl-butyrylamino}-succinamic acid] (HELM PEPTIDE1{[CC(C)(C)OC(=O)[*:2]].G.W.M.D.[am]}$$$$V2.0) | 25
